Activity calls are given as the source filed them. The rule behind the calls is not given here.
Key:
HK-2 [1] = experiment: Anti-fibrotic activity in TGFbeta-1-treated HK-2 cells assessed as Col4A1 mRNA level at 10 uM incubated for 24 to 48 hrs by qPCR analysis (reference value: 2.54 +/- 0.24); type: functional, Homo sapiens; conditions: time 24-48 hrs
HK-2 [2] = experiment: Anti-fibrotic activity in TGFbeta-1-treated HK-2 cells assessed as vimentin mRNA level at 10 uM incubated for 24 to 48 hrs by qPCR analysis (reference value: 3.73 +/- 0.47); type: functional, Homo sapiens; conditions: time 24-48 hrs
HK-2 [3] = experiment: Anti-fibrotic activity in TGFbeta-1-treated HK-2 cells assessed as fibronectin mRNA level at 10 uM incubated for 24 to 48 hrs by qPCR analysis (reference value: 11.31 +/- 2.49); type: functional, Homo sapiens; conditions: time 24-48 hrs
HK-2 [4] = experiment: Anti-fibrotic activity in TGFbeta-1-treated HK-2 cells assessed as decrease in fibronectin level at 5 to 10 uM incubated for 24 to 48 hrs by Western blot analysis; type: functional, cell-based; conditions: Homo sapiens, dose 5-10 µM, time 24-48 hrs
HK-2 [5] = experiment: Anti-fibrotic activity in TGFbeta-1-treated HK-2 cells assessed as decrease in alpha-SMA level at 1 uM incubated for 24 to 48 hrs by Western blot analysis; type: functional, cell-based; conditions: Homo sapiens, time 24-48 hrs
HK-2 [6] = experiment: Anti-fibrotic activity in TGFbeta-1-treated HK-2 cells assessed as Col4A1 mRNA level at 10 uM incubated for 24 to 48 hrs by qPCR analysis (reference value: 2.81 +/- 0.22); type: functional, Homo sapiens; conditions: time 24-48 hrs
HK-2 [7] = experiment: Anti-fibrotic activity in TGFbeta-1-treated HK-2 cells assessed as vimentin mRNA level at 10 uM incubated for 24 to 48 hrs by qPCR analysis (reference value: 2.2 +/- 0.28); type: functional, Homo sapiens; conditions: time 24-48 hrs
HK-2 [8] = experiment: Anti-fibrotic activity in TGFbeta-1-treated HK-2 cells assessed as fibronectin mRNA level at 10 uM incubated for 24 to 48 hrs by qPCR analysis (reference value: 2.16 +/- 0.31); type: functional, Homo sapiens; conditions: time 24-48 hrs
HK-2 [9] = experiment: Anti-fibrotic activity in TGFbeta-1-treated HK-2 cells assessed as decrease in Col4A1 mRNA level at 10 uM incubated for 24 to 48 hrs by qPCR analysis relative to control; type: functional, Homo sapiens; design: scale not given: the % may be the effect or the level left; conditions: time 24-48 hrs
HK-2 [10] = experiment: Anti-fibrotic activity in TGFbeta-1-treated HK-2 cells assessed as decrease in vimentin mRNA level at 10 uM incubated for 24 to 48 hrs by qPCR analysis relative to control; type: functional, Homo sapiens; design: scale not given: the % may be the effect or the level left; conditions: time 24-48 hrs
HK-2 [11] = experiment: Anti-fibrotic activity in TGFbeta-1-treated HK-2 cells assessed as decrease in fibronectin mRNA level at 10 uM incubated for 24 to 48 hrs by qPCR analysis relative to control; type: functional, Homo sapiens; design: scale not given: the % may be the effect or the level left; conditions: time 24-48 hrs
HK-2 [12] = experiment: Anti-fibrotic activity in TGFbeta-1-treated HK-2 cells assessed as decrease in vimentin level at 1 to 10 uM incubated for 24 to 48 hrs by Western blot analysis; type: functional, cell-based; conditions: Homo sapiens, dose 1-10 µM, time 24-48 hrs
HK-2 [13] = experiment: Anti-fibrotic activity in TGFbeta-1-treated HK-2 cells assessed as decrease in alpha-SMA level at 5 to 10 uM incubated for 24 to 48 hrs by Western blot analysis; type: functional, cell-based; conditions: Homo sapiens, dose 5-10 µM, time 24-48 hrs
HK-2 [14] = experiment: Anti-fibrotic activity in TGFbeta-1-treated HK-2 cells assessed as Col4A1 mRNA level at 10 uM incubated for 24 to 48 hrs by qPCR analysis (reference value: 2.35 +/- 0.38); type: functional, Homo sapiens; conditions: time 24-48 hrs
HK-2 [15] = experiment: Anti-fibrotic activity in TGFbeta-1-treated HK-2 cells assessed as vimentin mRNA level at 10 uM incubated for 24 to 48 hrs by qPCR analysis (reference value: 1.88 +/- 0.48); type: functional, Homo sapiens; conditions: time 24-48 hrs
HK-2 [16] = experiment: Anti-fibrotic activity in TGFbeta-1-treated HK-2 cells assessed as fibronectin mRNA level at 10 uM incubated for 24 to 48 hrs by qPCR analysis (reference value: 6.88); type: functional, Homo sapiens; conditions: time 24-48 hrs
HK-2 [17] = experiment: Anti-fibrotic activity in TGFbeta-1-treated HK-2 cells assessed as decrease in Col4A1 level at 1 uM incubated for 24 to 48 hrs by Western blot analysis; type: functional, cell-based; conditions: Homo sapiens, time 24-48 hrs
HK-2 [18] = experiment: Anti-fibrotic activity in TGFbeta-1-treated HK-2 cells assessed as decrease in vimentin level at 1 uM incubated for 24 to 48 hrs by Western blot analysis; type: functional, cell-based; conditions: Homo sapiens, time 24-48 hrs
HK-2 [19] = experiment: Anti-fibrotic activity in TGFbeta-1-treated HK-2 cells assessed as decrease in fibronectin level at 1 uM incubated for 24 to 48 hrs by Western blot analysis; type: functional, cell-based; conditions: Homo sapiens, time 24-48 hrs
HK-2 [20] = experiment: Cytotoxicity against TGFbeta-1-treated HK-2 cells assessed as decrease in cell viability at 1 to 5 uM incubated for 48 hrs by Cell Titer-Glo assay; type: toxicity, cell-based; conditions: human, hk-2, 48 h, dose 1-5 µM
[21] = Cytotoxicity against TGFbeta-1-treated HK-2 cells assessed as cell viability at 10 uM incubated for 48 hrs by Cell Titer-Glo assay (Rvb ~ 80 %); type: toxicity, cell-based; conditions: human, read-out: Activity
HK-2 [22] = experiment: Anti-fibrotic activity in HK-2 cell model of 10 ng/ml TGFbeta-1-induced fibrosis injury assessed as Col4A1 mRNA level at 10 uM incubated for 24 to 48 hrs by qPCR analysis (reference value: 2.44 +/- 0.21); type: functional, Homo sapiens; conditions: time 24-48 hrs
HK-2 [23] = experiment: Anti-fibrotic activity in HK-2 cell model of 10 ng/ml TGFbeta-1-induced fibrosis injury assessed as Col4A1 mRNA level at 20 uM incubated for 24 to 48 hrs by qPCR analysis (reference value: 2.44 +/- 0.21); type: functional, Homo sapiens; conditions: time 24-48 hrs
HK-2 [24] = experiment: Anti-fibrotic activity in HK-2 cell model of 20 ng/ml TGFbeta-1-induced fibrosis injury assessed as Col4A1 mRNA level at 10 uM incubated for 24 to 48 hrs by qPCR analysis (reference value: 8.96 +/- 0.96); type: functional, Homo sapiens; conditions: time 24-48 hrs
HK-2 [25] = experiment: Anti-fibrotic activity in HK-2 cell model of 20 ng/ml TGFbeta-1-induced fibrosis injury assessed as Col4A1 mRNA level at 20 uM incubated for 24 to 48 hrs by qPCR analysis (reference value: 8.96 +/- 0.96); type: functional, Homo sapiens; conditions: time 24-48 hrs
HK-2 [26] = experiment: Anti-fibrotic activity in HK-2 cell model of 10 ng/ml TGFbeta-1-induced fibrosis injury assessed as vimentin mRNA level at 10 uM incubated for 24 to 48 hrs by qPCR analysis (reference value: 1.41 +/- 0.1); type: functional, Homo sapiens; conditions: time 24-48 hrs
HK-2 [27] = experiment: Anti-fibrotic activity in HK-2 cell model of 10 ng/ml TGFbeta-1-induced fibrosis injury assessed as vimentin mRNA level at 20 uM incubated for 24 to 48 hrs by qPCR analysis (reference value: 1.41 +/- 0.1); type: functional, Homo sapiens; conditions: time 24-48 hrs
HK-2 [28] = experiment: Anti-fibrotic activity in HK-2 cell model of 20 ng/ml TGFbeta-1-induced fibrosis injury assessed as vimentin mRNA level at 10 uM incubated for 24 to 48 hrs by qPCR analysis (reference value: 3.19 +/- 0.23); type: functional, Homo sapiens; conditions: time 24-48 hrs
HK-2 [29] = experiment: Anti-fibrotic activity in HK-2 cell model of 20 ng/ml TGFbeta-1-induced fibrosis injury assessed as vimentin mRNA level at 20 uM incubated for 24 to 48 hrs by qPCR analysis (reference value: 3.19 +/- 0.23); type: functional, Homo sapiens; conditions: time 24-48 hrs

CC(C)=CCC[C@]1(C)Oc2ccc(O)cc2C2=CC(=O)CC[C@H]21 (racemic)
Activity (HK-2 [1]): 0.6 | Activity (HK-2 [2]): 0.93 | Activity (HK-2 [3]): 0.39 | Activity (HK-2 [4]): Active | Activity (HK-2 [5]): Active

CC(C)=CCC[C@]1(C)Oc2ccc(O)cc2C2=CC(=O)CC[C@@H]21 (racemic)
Activity (HK-2 [6]): 1.1 | Activity (HK-2 [7]): 1.22 | Activity (HK-2 [8]): 0.6 | Activity (HK-2 [9]): <=50% | Activity (HK-2 [10]): <=50% | Activity (HK-2 [11]): <=50% | Activity (HK-2 [12]): Active | Activity (HK-2 [13]): Active

CC(C)=CCCC1(C)Oc2ccc(O)cc2-c2cc(O)ccc21 (racemic)
Activity (HK-2 [14]): 0.66 | Activity (HK-2 [15]): 0.65 | Activity (HK-2 [16]): 1 | Activity (HK-2 [17]): Active | Activity (HK-2 [18]): Active | Activity (HK-2 [19]): Active | Activity (HK-2 [20]): Non-toxic | viability at 48 h, 10 µM [21]: 70% | Activity (HK-2 [22]): 0.74 | Activity (HK-2 [23]): 0.11 | Activity (HK-2 [24]): 4.08 | Activity (HK-2 [25]): 1.21 | Activity (HK-2 [26]): 0.54 | Activity (HK-2 [27]): 0.24 | Activity (HK-2 [28]): 1.44 | Activity (HK-2 [29]): 0.5

Source: ChEMBL document CHEMBL6074713, “Chemical Synthesis and Antifibrotic Properties of (±)-Cochlearol T, (±)-Ganocochlearin A, and (±)-Cochlearol Y” (ACS Med Chem Lett, 2024)
